This is an account of results in publication PMC10731000, “Functional characterization of three G protein-coupled acetylcholine receptors in parasitic nematode Trichinella spiralis” (International Journal for Parasitology: Drugs and Drug …, 2023).

Structures can show the parent of a compound that is named as a salt.

In one assay the test system is C. elegans GAR-2. More on the design: method as in Lee et al., 1999, Lee et al., 2000. Particulars: ref Lee et al., 1999, Lee et al., 2000; cited from earlier work.
For a further assay, the system named is C. elegans GAR-1. More on the design: method as in Lee et al., 1999, Lee et al., 2000. To be noted: ref Lee et al., 1999, Lee et al., 2000; cited from earlier work.
The target of the next assay is TsGAR-3 (Trichinella spiralis, UniProt E5S5F5). Description: Aequorin antagonist assay (block of 10 μM ACh response) in CHO-K1 cells expressing TsGAR-3. The class given is cell-based. The method, then: Therefore, there were two types of transient expression: i) TsGAR-1, -2, or -3/aequorin/Gα15(16); and ii) TsGAR-1, -2, or -3/aequorin.
TsGAR-3, sequence (E5S5F5 entry or part of it): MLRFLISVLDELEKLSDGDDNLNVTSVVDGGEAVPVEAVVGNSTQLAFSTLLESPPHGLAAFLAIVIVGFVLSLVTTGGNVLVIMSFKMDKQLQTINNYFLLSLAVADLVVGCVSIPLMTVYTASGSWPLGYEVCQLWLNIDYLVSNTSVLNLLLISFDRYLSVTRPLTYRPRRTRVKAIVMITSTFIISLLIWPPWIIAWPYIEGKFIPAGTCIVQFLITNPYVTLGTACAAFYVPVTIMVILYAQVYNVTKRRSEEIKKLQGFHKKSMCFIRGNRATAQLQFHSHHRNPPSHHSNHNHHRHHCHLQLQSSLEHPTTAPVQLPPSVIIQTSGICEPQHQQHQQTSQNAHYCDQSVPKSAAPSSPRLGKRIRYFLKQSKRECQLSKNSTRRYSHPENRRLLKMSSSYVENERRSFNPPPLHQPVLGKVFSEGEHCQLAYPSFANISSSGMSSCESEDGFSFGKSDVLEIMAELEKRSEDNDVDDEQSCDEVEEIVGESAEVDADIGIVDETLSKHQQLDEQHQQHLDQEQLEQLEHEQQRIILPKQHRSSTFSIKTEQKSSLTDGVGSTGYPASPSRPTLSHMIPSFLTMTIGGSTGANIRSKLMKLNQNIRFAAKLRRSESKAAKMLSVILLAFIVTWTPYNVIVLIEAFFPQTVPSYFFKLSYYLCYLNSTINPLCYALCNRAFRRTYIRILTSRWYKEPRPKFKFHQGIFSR
Briefly, CHO–K1 cells were kept in growth medium (Ham's F12 Media with 10% fetal bovine serum) until 70% of confluence was reached. FuGENE® HD Transfection Reagent (Promega) was then used to transfect the plasmid constructs. Prior to the assay, the cells were pre-equilibrated with coelenterazine h (Promega) for 3 h at room temperature. The assay was performed in opaque 96-well microplates (Nunc) using either Fluostar Omega (BMG Labtech) or GloMax® Plate Reader (Promega). In agonist assays, 50 μL of various doses of agonistic ligands were added to wells in triplicate, followed by injection of 50μL/∼15,000 of CHO–K1 cells. […] When performing the antagonist assay, cells were pre-incubated with different doses of antagonistic ligands for 5 min in RT (in a 96-well plate) and subsequently a 50 μL of 10 μM ACh solution was injected into the wells. The changes in luminescence were measured for 25 s immediately after injecting ACh, and time integrated values were normalized to the response of those wells in each plate that only contained cells with medium. A dose-response curve was plotted afterwards for each data set and half-maximum response values (EC50 or IC50) along the Hill coefficient (nH) were calculated using GraphPad Prism 8.0 (GraphPad Software). Two and three biological replicates were performed for the testing of T. spiralis GARs with or without the Gα15(16) and agonistic or antagonistic assay, respectively, with three technical replicates for each ligand. In terms of negative controls, a mock transfection was performed using empty pcDNA3.1 (+) plasmid, with an aequorin reporter and Gα15(16) subunit. To confirm the specificity of T. spiralis GAR-1, -2, and -3 affinity, we tested dopamine, octopamine and norepinephrine chemical agents.

The next assay concerns A. suum GAR-1. Also on record: method as in Kimber et al., 2009. Particulars: ref Kimber et al., 2009; cited from earlier work.
A further assay has as its target TsGAR-2 (Trichinella spiralis, UniProt E5SAZ1). Description: Aequorin antagonist assay (block of 10 μM ACh response) in CHO-K1 cells expressing TsGAR-2. Particulars: co-expressed with Gα15(16). The class given is cell-based. The text has this:
(§1) T. spiralis GARs were heterologously expressed in CHO–K1 cells (Sigma) along with the aequorin reporter—with or without the wild-type human G protein alpha 15 subunit (Gα15(16)) (cDNA Resource Center, Bloomsburg University of Pennsylvania)—to observe activation of the receptor by monitoring bioluminescence triggered by the mobilization of intracellular calcium ([Offermanns and Simon, 1995]; [Park et al., 2002]). Therefore, there were two types of transient expression: i) TsGAR-1, -2, or -3/aequorin/Gα15(16); and ii) TsGAR-1, -2, or -3/aequorin. The use of Gα15(16) in the first assay is due to its highly efficient way of linking calcium mobilization signaling pathways to GPCRs that are preferentially coupling with Gi/o or Gs protein members ([Offermanns and Simon, 1995]).
(§2) For handling cell lines, all transfection details, and monitoring receptor activities, we followed the previously published study ([Šimo et al., 2011], [2013]; [Mateos-Hernández et al., 2020]). Briefly, CHO–K1 cells were kept in growth medium (Ham's F12 Media with 10% fetal bovine serum) until 70% of confluence was reached. FuGENE® HD Transfection Reagent (Promega) was then used to transfect the plasmid constructs. Prior to the assay, the cells were pre-equilibrated with coelenterazine h (Promega) for 3 h at room temperature. The assay was performed in opaque 96-well microplates (Nunc) using either Fluostar Omega (BMG Labtech) or GloMax® Plate Reader (Promega). In agonist assays, 50 μL of various doses of agonistic ligands were added to wells in triplicate, followed by injection of 50μL/∼15,000 of CHO–K1 cells. Immediately after the cell injections, luminescence values were monitored for 25 s and their integrated values over time were normalized to the largest positive control response in each plate (45 μM ACh) after background noise was subtracted. When performing the antagonist assay, cells were pre-incubated with different doses of antagonistic ligands for 5 min in RT (in a 96-well plate) and subsequently a 50 μL of 10 μM ACh solution was injected into the wells. The changes in luminescence were measured for 25 s immediately after injecting ACh, and time integrated values were normalized to the response of those wells in each plate that only contained cells with medium. A dose-response curve was plotted afterwards for each data set and half-maximum response values (EC50 or IC50) along the Hill coefficient (nH) were calculated using GraphPad Prism 8.0 (GraphPad Software). Two and three biological replicates were performed for the testing of T. spiralis GARs with or without the Gα15(16) and agonistic or antagonistic assay, respectively, with three technical replicates for each ligand. In terms of negative controls, a mock transfection was performed using empty pcDNA3.1 (+) plasmid, with an aequorin reporter and Gα15(16) subunit. To confirm the specificity of T. spiralis GAR-1, -2, and -3 affinity, we tested dopamine, octopamine and norepinephrine chemical agents.

Another assay addresses TsGAR-1 (Trichinella spiralis, UniProt A0A0V1C1R2). The assay is described as follows: Aequorin antagonist assay (block of 10 μM ACh response) in CHO-K1 cells expressing TsGAR-1. To be noted: co-expressed with Gα15(16). The class given is cell-based.
Description: as §1
as §2, with “In terms of negative controls, a mock transfection was performed using empty pcDNA3.1 (+) plasmid, with an aequorin reporter and Gα15(16) subunit. To confirm the specificity of T. spiralis GAR-1, -2, and -3 affinity, we tested dopamine, octopamine and norepinephrine chemical agents.” left out

TsGAR-2, sequence (E5SAZ1 entry or part of it): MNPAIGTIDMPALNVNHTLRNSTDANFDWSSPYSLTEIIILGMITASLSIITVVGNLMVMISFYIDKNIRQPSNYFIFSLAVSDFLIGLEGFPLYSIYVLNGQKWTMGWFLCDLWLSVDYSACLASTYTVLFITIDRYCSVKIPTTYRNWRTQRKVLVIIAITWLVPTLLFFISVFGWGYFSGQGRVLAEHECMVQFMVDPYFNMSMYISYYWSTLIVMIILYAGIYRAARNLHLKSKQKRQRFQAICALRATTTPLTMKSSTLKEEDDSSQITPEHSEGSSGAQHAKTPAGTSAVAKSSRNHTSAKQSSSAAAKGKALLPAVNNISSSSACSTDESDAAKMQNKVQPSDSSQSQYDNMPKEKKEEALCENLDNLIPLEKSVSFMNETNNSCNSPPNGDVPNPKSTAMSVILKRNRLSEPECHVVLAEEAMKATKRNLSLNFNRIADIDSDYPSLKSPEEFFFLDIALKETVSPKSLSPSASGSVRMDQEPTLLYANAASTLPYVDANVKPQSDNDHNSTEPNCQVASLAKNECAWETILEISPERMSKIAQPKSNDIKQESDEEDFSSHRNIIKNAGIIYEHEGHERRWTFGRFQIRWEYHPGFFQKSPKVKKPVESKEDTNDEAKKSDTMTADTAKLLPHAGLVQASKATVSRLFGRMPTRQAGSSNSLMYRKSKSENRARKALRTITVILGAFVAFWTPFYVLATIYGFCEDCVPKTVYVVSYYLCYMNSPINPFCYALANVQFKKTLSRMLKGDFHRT
TsGAR-1, sequence (A0A0V1C1R2 entry or part of it): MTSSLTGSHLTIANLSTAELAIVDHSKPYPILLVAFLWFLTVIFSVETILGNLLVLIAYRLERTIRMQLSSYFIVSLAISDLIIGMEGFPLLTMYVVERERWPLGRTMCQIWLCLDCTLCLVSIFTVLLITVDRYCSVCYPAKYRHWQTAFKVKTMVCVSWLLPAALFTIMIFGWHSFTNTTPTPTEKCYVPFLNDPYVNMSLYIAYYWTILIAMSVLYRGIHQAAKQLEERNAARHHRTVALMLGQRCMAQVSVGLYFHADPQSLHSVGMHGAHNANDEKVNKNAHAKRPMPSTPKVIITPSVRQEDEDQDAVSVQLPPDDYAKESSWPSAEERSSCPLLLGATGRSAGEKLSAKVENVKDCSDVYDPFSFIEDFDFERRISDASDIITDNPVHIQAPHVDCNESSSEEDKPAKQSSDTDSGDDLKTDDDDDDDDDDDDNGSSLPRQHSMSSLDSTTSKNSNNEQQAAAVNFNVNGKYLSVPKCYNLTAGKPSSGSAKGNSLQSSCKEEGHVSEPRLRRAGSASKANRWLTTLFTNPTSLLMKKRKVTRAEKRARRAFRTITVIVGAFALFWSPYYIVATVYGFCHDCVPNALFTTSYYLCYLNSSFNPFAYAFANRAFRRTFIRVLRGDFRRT

Take `CCCOC(C(=O)OC1CCN(C)CC1)(c1ccccc1)c1ccccc1` [Propiverine, propiverine hydrochloride]: in the assay with C. elegans GAR-2, the “antagonist effect on C. elegans GAR-2 (in words)” value was “largely no effect”. Also, the “antagonist effect on C. elegans GAR-1 (in words)” value with C. elegans GAR-1 is “largely no effect”. For the same compound, the IC50 – broadly, the point on the concentration scale where inhibition reaches its midpoint – was greater than 10 µM against TsGAR-3; greater than 10000 nM on TsGAR-2 (antagonist vs 10 μM ACh, read-out: IC50 ± SE (nM), TsGAR-2); greater than 10000 nM on TsGAR-1 (antagonist vs 10 μM ACh, read-out: IC50 ± SE (nM), TsGAR-1). Moreover, the “nH (Hill coefficient), antagonist, TsGAR-3” value at TsGAR-3 (antagonist, without Gα15(16)) is −0.6649. In addition, the “antagonist effect on TsGAR-3 (in words)” value at TsGAR-3 (without Gα15(16)) is “partially blocked”. For the same compound, the “antagonist effect on A. suum GAR-1 (in words)” value in the assay on A. suum GAR-1 is on record as “largely no effect”. Besides, the “nH (Hill coefficient), antagonist, TsGAR-2” value on TsGAR-2 (antagonist) is reported as −3.002. The “antagonist effect on TsGAR-2 (in words)” value at TsGAR-2 is “partially blocked”. In addition, the “antagonist effect on TsGAR-1 (in words)” value at TsGAR-1 is “partially blocked”.
